Experimental data from patent publication US5696151A, “Compounds useful for the inhibition of the replication of HIV-1 and HIV-1 mutants” (priority 1995, dated 1997).
Values after ≈ are worked out from the molar mass of the structure shown.

What was measured:
Type in all cases: cell-based
HIV-1/106-Ala = test: Inhibition of HIV-1 induced syncytium formation in CEM cells, RT mutant 106-Ala; settings: Table 2B, day 4, averages of 2 to 3 independent experiments; for EC50: Human immunodeficiency virus 1, CCRF-CEM, 96 h, read-out: Antiviral Activity of Comparative Compounds EC50, 106-Ala
From the text: (§1) CEM cells were obtained from the American Tissue Cell Culture Collection (Rockville, Md.). HIV-1(IIIB) was originally obtained from the culture supernatant of persistently HIV-1-infected H9 cells and was provided by R. C. Gallo and M. Popovic (National Cancer Institute, National Institutes of Health, Bethesda, Md.). […] 67: 5353-5359 (1993); HIV-1/Lys-138 ("Lys-138") was selected for resistance against TSAO-m^3T as described in Balzarini et al, Virology 192: 246-253 (1993) and Balzarini et al, Proc. Nat. Acad. Sci. USA 90: 6952-6956 (1993); HIV-1/181-Cys ("181-Cys") was selected for resistance against pyridinone L-697,661 as described in Balzarini et al, Virology 192: 246-253 (1993); and HIV-1/188-His ("188-His") was selected for resistance against HEPT as described in Balzarini et al, Mol. Pharmocol. 44: 694-701 (1993). 188-His was then further converted to HIV-1/188-Leu "188-Leu") upon further passage in cell culture in the absence of the HEPT.
(§2) CEM cells were suspended at ≈300,000 cells per ml of culture medium and infected with approximately 100 CCID50 (CCID50 being the 50% cell culture infective dose) of HIV-1(IIIB) or one of the HIV-1 RT mutant strains described above. Then 100 μl of the infected cell suspensions was added to 200 μl microtiter plate wells containing 100 μl of appropriate serial (5-fold) dilutions of the test compounds. The inhibitory effect of the test compounds on HIV-1 induced syncytium formation in CEM cells was examined microscopically on day 4 post infection.

HIV-1/103-Asn = test: Inhibition of HIV-1 induced syncytium formation in CEM cells, RT mutant 103-Asn; settings: Human immunodeficiency virus 1, CCRF-CEM, 96 h, Table 2B, day 4, averages of 2 to 3 independent experiments, read-out: Antiviral Activity of Comparative Compounds EC50, 103-Asn
From the text: as §1, §2

HIV-1/188-Leu = test: Inhibition of HIV-1 induced syncytium formation in CEM cells, RT mutant 188-Leu; settings: Human immunodeficiency virus 1, CCRF-CEM, 96 h, Table 2B, day 4, averages of 2 to 3 independent experiments, read-out: Antiviral Activity of Comparative Compounds EC50, 188-Leu
From the text: as §1, §2

HIV-1/100-Ile = test: Inhibition of HIV-1 induced syncytium formation in CEM cells, RT mutant 100-Ile; settings: Human immunodeficiency virus 1, CCRF-CEM, 96 h, Table 2B, day 4, averages of 2 to 3 independent experiments, read-out: Antiviral Activity of Comparative Compounds EC50, 100-Ile
From the text: as §1, §2

HIV-1/Lys-138 = test: Inhibition of HIV-1 induced syncytium formation in CEM cells, RT mutant 138-Lys; settings: Human immunodeficiency virus 1, CCRF-CEM, 96 h, Table 2B, day 4, averages of 2 to 3 independent experiments, read-out: Antiviral Activity of Comparative Compounds EC50, 138-Lys
From the text: as §1, §2

in vitro = settings: human, cem cells, CC50 (50% cytostatic concentration), Table 2B; CEM cell proliferation; averages of 2 to 3 independent experiments
From the text: as §1
^b 50% cytostatic concentration (i.e., compound concentration require
to inhibit CEM cell proliferation by 50%)

HIV-1(IIIB) = test: Inhibition of HIV-1 induced syncytium formation in CEM cells, wild type; settings: Table 2B, WT = HIV-1(IIIB), day 4, averages of 2 to 3 independent experiments; for EC50: Human immunodeficiency virus 1, IIIB, CCRF-CEM, 96 h, read-out: Antiviral Activity of Comparative Compounds EC50, WT
From the text: as §1, §2

HIV-1/181-Cys = test: Inhibition of HIV-1 induced syncytium formation in CEM cells, RT mutant 181-Cys; settings: Human immunodeficiency virus 1, CCRF-CEM, 96 h, Table 2B, day 4, averages of 2 to 3 independent experiments, read-out: Antiviral Activity of Comparative Compounds EC50, 181-Cys
From the text: as §1, §2

CC=CCOc1cc(NC(=S)c2ccsc2C)ccc1Cl [Compound 1]
EC50 (HIV-1/106-Ala): 0.023 µg/mL (≈ 0.0681 µM) | EC50 (HIV-1/103-Asn): 0.048 µg/mL (≈ 0.142 µM) | EC50 (HIV-1/188-Leu): 0.65 µg/mL (≈ 1.92 µM) | EC50 (HIV-1/100-Ile): 0.048 µg/mL (≈ 0.142 µM) | EC50 (HIV-1/Lys-138): 0.018 µg/mL (≈ 0.0533 µM) | CC50 (in vitro): 5.9 µg/mL (≈ 17.5 µM) | EC50 (HIV-1(IIIB)): 0.0055 µg/mL (≈ 0.0163 µM) | EC50 (HIV-1/181-Cys): 0.03 µg/mL (≈ 0.0888 µM)

CC=CCOc1cc(NC(=S)c2ccoc2C)ccc1Cl [Compound 2]
EC50 (HIV-1/106-Ala): 0.04 µg/mL (≈ 0.124 µM) | EC50 (HIV-1/103-Asn): 0.023 µg/mL (≈ 0.0715 µM) | EC50 (HIV-1/188-Leu): 0.65 µg/mL (≈ 2.02 µM) | EC50 (HIV-1/100-Ile): 0.048 µg/mL (≈ 0.149 µM) | EC50 (HIV-1/Lys-138): 0.018 µg/mL (≈ 0.0559 µM) | CC50 (in vitro): 9 µg/mL (≈ 28 µM) | EC50 (HIV-1(IIIB)): 0.006 µg/mL (≈ 0.0186 µM) | EC50 (HIV-1/181-Cys): 0.075 µg/mL (≈ 0.233 µM)

Cc1occc1C(=S)Nc1ccc(Cl)c(C=NOC(C)(C)C)c1 [Compound 3]
Antiviral Activity of Comparative Compounds EC50, 106-Ala (HIV-1/106-Ala): 0.03 µg/mL | EC50 (HIV-1/103-Asn): 0.23 µg/mL (≈ 0.656 µM) | EC50 (HIV-1/188-Leu): 0.91 µg/mL (≈ 2.59 µM) | EC50 (HIV-1/100-Ile): 0.057 µg/mL (≈ 0.162 µM) | EC50 (HIV-1/Lys-138): 0.045 µg/mL (≈ 0.128 µM) | CC50 (in vitro): 5.8 µg/mL (≈ 16.5 µM) | Antiviral Activity of Comparative Compounds EC50, WT (HIV-1(IIIB)): 0.0065 µg/mL | EC50 (HIV-1/181-Cys): 0.08 µg/mL (≈ 0.228 µM)

CON=Cc1cc(NC(=S)c2ccoc2C)ccc1OC [Compound 4]
EC50 (HIV-1/106-Ala): 0.22 µg/mL (≈ 0.723 µM) | EC50 (HIV-1/103-Asn): 0.4 µg/mL (≈ 1.31 µM) | EC50 (HIV-1/188-Leu): 0.93 µg/mL (≈ 3.06 µM) | EC50 (HIV-1/100-Ile): 0.22 µg/mL (≈ 0.723 µM) | EC50 (HIV-1/Lys-138): 0.039 µg/mL (≈ 0.128 µM) | CC50 (in vitro): > 100 µg/mL | EC50 (HIV-1(IIIB)): 0.007 µg/mL (≈ 0.023 µM) | EC50 (HIV-1/181-Cys): 0.59 µg/mL (≈ 1.94 µM)

CC1=C(C(=S)Nc2ccc(Cl)c(C=NOC(C)(C)C)c2)CCCO1 [Compound 5]
EC50 (HIV-1/106-Ala): 0.025 µg/mL (≈ 0.0681 µM) | EC50 (HIV-1/103-Asn): 0.08 µg/mL (≈ 0.218 µM) | EC50 (HIV-1/188-Leu): > 2 µg/mL | EC50 (HIV-1/100-Ile): 0.055 µg/mL (≈ 0.15 µM) | EC50 (HIV-1/Lys-138): 0.04 µg/mL (≈ 0.109 µM) | CC50 (in vitro): 10 µg/mL (≈ 27.3 µM) | EC50 (HIV-1(IIIB)): 0.013 µg/mL (≈ 0.0354 µM) | EC50 (HIV-1/181-Cys): 0.025 µg/mL (≈ 0.0681 µM)

CC=CCSc1cc(NC(=S)c2ccoc2C)ccc1Cl [Compound 6]
EC50 (HIV-1/106-Ala): 0.018 µg/mL (≈ 0.0533 µM) | EC50 (HIV-1/103-Asn): 0.03 µg/mL (≈ 0.0888 µM) | EC50 (HIV-1/188-Leu): 1 µg/mL (≈ 2.96 µM) | EC50 (HIV-1/100-Ile): 0.037 µg/mL (≈ 0.11 µM) | EC50 (HIV-1/Lys-138): 0.03 µg/mL (≈ 0.0888 µM) | CC50 (in vitro): 4.7 µg/mL (≈ 13.9 µM) | EC50 (HIV-1(IIIB)): 0.0041 µg/mL (≈ 0.0121 µM) | EC50 (HIV-1/181-Cys): 0.045 µg/mL (≈ 0.133 µM)

CC1=C(C(=S)Nc2ccc(Cl)c(C=NOC(C)(C)C)c2)CCO1 [Compound 7]
EC50 (HIV-1/106-Ala): 0.03 µg/mL (≈ 0.085 µM) | EC50 (HIV-1/103-Asn): 0.058 µg/mL (≈ 0.164 µM) | EC50 (HIV-1/188-Leu): 1.2 µg/mL (≈ 3.4 µM) | EC50 (HIV-1/100-Ile): 0.055 µg/mL (≈ 0.156 µM) | EC50 (HIV-1/Lys-138): 0.04 µg/mL (≈ 0.113 µM) | CC50 (in vitro): 11 µg/mL (≈ 31.2 µM) | EC50 (HIV-1(IIIB)): 0.0065 µg/mL (≈ 0.0184 µM) | EC50 (HIV-1/181-Cys): 0.045 µg/mL (≈ 0.128 µM)

CC=CCSc1cc(NC(=S)c2ccsc2C)ccc1Cl [Compound 8]
EC50 (HIV-1/106-Ala): 0.023 µg/mL (≈ 0.065 µM) | EC50 (HIV-1/103-Asn): 0.023 µg/mL (≈ 0.065 µM) | EC50 (HIV-1/188-Leu): > 2 µg/mL | EC50 (HIV-1/100-Ile): 0.032 µg/mL (≈ 0.0904 µM) | EC50 (HIV-1/Lys-138): 0.025 µg/mL (≈ 0.0706 µM) | CC50 (in vitro): 5.1 µg/mL (≈ 14.4 µM) | EC50 (HIV-1(IIIB)): 0.0055 µg/mL (≈ 0.0155 µM) | EC50 (HIV-1/181-Cys): 0.025 µg/mL (≈ 0.0706 µM)

Cc1c(C(=S)Nc2ccc(Cl)c(C=NOC(C)(C)C)c2)ccn1C [Compound 10]
EC50 (HIV-1/106-Ala): 0.23 µg/mL (≈ 0.632 µM) | EC50 (HIV-1/103-Asn): 1.27 µg/mL (≈ 3.49 µM) | EC50 (HIV-1/188-Leu): > 2 µg/mL | EC50 (HIV-1/100-Ile): 0.65 µg/mL (≈ 1.79 µM) | EC50 (HIV-1/Lys-138): 0.09 µg/mL (≈ 0.247 µM) | CC50 (in vitro): 6.5 µg/mL (≈ 17.9 µM) | EC50 (HIV-1(IIIB)): 0.02 µg/mL (≈ 0.055 µM) | EC50 (HIV-1/181-Cys): 0.033 µg/mL (≈ 0.0907 µM)

Cn1ccc(C(=S)Nc2ccc(Cl)c(C=NOC(C)(C)C)c2)c1 [Compound 11]
EC50 (HIV-1/106-Ala): 0.1 µg/mL (≈ 0.286 µM) | EC50 (HIV-1/103-Asn): 0.17 µg/mL (≈ 0.486 µM) | EC50 (HIV-1/188-Leu): > 2 µg/mL | EC50 (HIV-1/100-Ile): 0.13 µg/mL (≈ 0.372 µM) | EC50 (HIV-1/Lys-138): 0.13 µg/mL (≈ 0.372 µM) | CC50 (in vitro): 13 µg/mL (≈ 37.2 µM) | EC50 (HIV-1(IIIB)): 0.029 µg/mL (≈ 0.0829 µM) | EC50 (HIV-1/181-Cys): 0.045 µg/mL (≈ 0.129 µM)

Cc1sccc1C(=S)Nc1ccc(Cl)c(OCCC(C)C)c1 [Compound 12]
EC50 (HIV-1/106-Ala): 0.08 µg/mL (≈ 0.226 µM) | EC50 (HIV-1/103-Asn): 0.035 µg/mL (≈ 0.0989 µM) | EC50 (HIV-1/188-Leu): > 2 µg/mL | EC50 (HIV-1/100-Ile): 0.035 µg/mL (≈ 0.0989 µM) | EC50 (HIV-1/Lys-138): 0.035 µg/mL (≈ 0.0989 µM) | CC50 (in vitro): > 100 µg/mL | EC50 (HIV-1(IIIB)): 0.007 µg/mL (≈ 0.0198 µM) | EC50 (HIV-1/181-Cys): 0.07 µg/mL (≈ 0.198 µM)

CCC1=C(C(=O)Nc2ccc(Cl)c(C(=O)OC3CCCCC3)c2)SCCO1 [Compound 13]
EC50 (HIV-1/106-Ala): 0.17 µg/mL (≈ 0.415 µM) | EC50 (HIV-1/103-Asn): 0.38 µg/mL (≈ 0.927 µM) | EC50 (HIV-1/188-Leu): ≥ 2 µg/mL | EC50 (HIV-1/100-Ile): 0.26 µg/mL (≈ 0.634 µM) | EC50 (HIV-1/Lys-138): 0.25 µg/mL (≈ 0.61 µM) | CC50 (in vitro): 11.4 µg/mL (≈ 27.8 µM) | EC50 (HIV-1(IIIB)): 0.08 µg/mL (≈ 0.195 µM) | EC50 (HIV-1/181-Cys): 0.07 µg/mL (≈ 0.171 µM)
